According to ChEMBL document CHEMBL5154921, “Discovery and Characterization of the First Nonpeptide Antagonists for the Relaxin-3/RXFP3 System” (J Med Chem, 2022):

Experiments:
Relaxin-3 receptor 1 [1] = target: T1, Relaxin-3 receptor 1 (Homo sapiens, UniProt Q9NSD7); test: Antagonist activity at human RXFP3 expressed in CHO-K1 cells assessed as inhibition of relaxin-3 stimulated ERK1/2 phosphorylation preincubated for 15 mins followed by relaxin-3 addition for 5 mins; assay type: functional, cell-based
T1 sequence (Q9NSD7 whole entry): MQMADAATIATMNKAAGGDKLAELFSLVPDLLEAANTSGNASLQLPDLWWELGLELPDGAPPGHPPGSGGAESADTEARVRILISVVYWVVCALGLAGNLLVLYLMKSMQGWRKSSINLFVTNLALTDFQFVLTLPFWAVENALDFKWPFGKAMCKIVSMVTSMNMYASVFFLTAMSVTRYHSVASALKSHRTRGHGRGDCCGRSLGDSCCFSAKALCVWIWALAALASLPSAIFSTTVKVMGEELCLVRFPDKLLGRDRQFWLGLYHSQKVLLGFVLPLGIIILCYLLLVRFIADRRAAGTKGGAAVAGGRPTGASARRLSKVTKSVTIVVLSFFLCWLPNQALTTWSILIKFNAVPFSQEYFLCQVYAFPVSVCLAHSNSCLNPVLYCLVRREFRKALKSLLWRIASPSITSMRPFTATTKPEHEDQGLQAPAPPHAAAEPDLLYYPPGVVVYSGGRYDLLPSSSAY

Relaxin-3 receptor 1 [2] = target: T1, Relaxin-3 receptor 1
Relaxin-3 receptor 1 [3] = target: T1, Relaxin-3 receptor 1; test: Antagonist activity at human RXFP3 expressed in CHO-K1 cells assessed as forskolin-induced cAMP accumulation measured after 30 mins in presence of relaxin-3 by TR-FRET assay; assay type: functional, cell-based

## H-RAAPYGVRLSGREFIRAVIFTSR-NH2
Relaxin-3 receptor 1 [1]
  IC50: 7820 nM
Relaxin-3 receptor 1 [2]
  Ki: 11.1 nM
Relaxin-3 receptor 1 [3]
  IC50: 504 nM

## Cc1ccc(-c2noc(-c3ccc(NC(=O)C4CC(=O)N(Cc5cccc(F)c5)C4)cc3)n2)cc1 (centres undefined)
Relaxin-3 receptor 1 [3]
  IC50: > 10000 nM
